Measurements reported in US7777033B2, “Monomer with anti-microbial character, polymer using the same, and manufacturing method thereof” (Micro Science Tech Co., Ltd., priority 2005, dated 2010).

Experiments:
E. coli (KCTC 1682) = assay: Strain reduction rate determination (shake flask method); assay type: cell-based; conditions: for Right After Inoculation (number of bacteria): 5 minutes after inoculation, 0.1 g powder or 2 ml stock solution; for After 24 hours (number of bacteria): 24 hours incubation with agitation; for Strain Reduction Rate: vs control after 24 hours
Description: (§1) The antimicrobial test was conducted by strain reduction rate determination (shake flask method). As the samples, 0.1 g of each of the compounds of Examples 9, 13, 15, and 18 to 23 was used in the form of powder, and in the case of Examples 28 to 31, 2 ml of their stock solution was used. The buffer solutions used in the antibacterial test were those prepared by dissolving each of 28.39 g of […] and 23.99 g of NaH2PO4 in 1000 ml of purified water, blending them in the volume of 72 ml and 28 ml respectively, adding 5 g of NaCl thereto, and then pouring purified water thereinto to adjust their total volume to 1000 ml. As the control, the same bacterial strains, to which no samples were added, were used. The samples were mixed with bacterial strain inocula (5.0×105), which were then incubated while agitating for 24 hours and then incubated on agar media. The reduction rate of strain number was determined by the following Equation 1. (Reduction Rate %)={(A−B)/A}×100 [Equation 1]
(§2) A: Number of Bacteria in Control after 24 Hours
(§3) B: Number of Bacteria in Sample after 24 Hours
(§4) In Table 6 above, “right after inoculation” refers to after 5 minutes from the time the bacterial strains were inoculated.

S. aureus (KCTC 1621) = assay: as above; assay type: cell-based; conditions: for Right After Inoculation (number of bacteria): 5 minutes after inoculation, 0.1 g powder or 2 ml stock solution; for After 24 hours (number of bacteria): 24 hours incubation with agitation; for Strain Reduction Rate: vs control after 24 hours
Description: as §1, §2, §3, §4

[1] = Light stability test (colour change over 3 months); assay type: physicochemical; conditions: for Discoloration: installed in the place where light was shut off
Source text: The antimicrobial monomers manufactured in Examples 9 and 10 and the antimicrobial acrylic copolymers manufactured in Examples 17 to 23 were used as samples. 3 g of each sample were respectively put in lucid glass test tubes, which were then placed under a direct ray of light. Also, according to the same method, the samples were collected in lucid glass test tubes which were then sealed with aluminum foil and installed in a place where indoor light was shut off.

SMILES	Right After Inoculation (number of bacteria) (E. coli (KCTC 1682))	After 24 hours (number of bacteria) (E. coli (KCTC 1682))	Strain Reduction Rate (E. coli (KCTC 1682)) [%]	Right After Inoculation (number of bacteria) (S. aureus (KCTC 1621))	After 24 hours (number of bacteria) (S. aureus (KCTC 1621))	Strain Reduction Rate (S. aureus (KCTC 1621)) [%]	Colour, Four Weeks Later ([1]; Direct Ray of Light)	Colour, Initial ([1]; Direct Ray of Light)	Colour, Ten Weeks Later ([1]; Direct Ray of Light)	Colour, Twelve Weeks Later ([1]; Direct Ray of Light)	Colour, Two Weeks Later ([1]; Direct Ray of Light)	Colour, Eight Weeks Later ([1]; Light Shut Off)	Colour, Four Weeks Later ([1]; Light Shut Off)	Colour, Initial ([1]; Light Shut Off)	Colour, Six Weeks Later ([1]; Light Shut Off)	Colour, Ten Weeks Later ([1]; Light Shut Off)	Colour, Twelve Weeks Later ([1]; Light Shut Off)	Colour, Two Weeks Later ([1]; Light Shut Off)	Discoloration [1]
C=C(C)C(=O)OCC(O)CN1CCN(c2cc3c(cc2F)c(=O)c(C(=O)O)cn3C2CC2)CC1 (centres unmarked) [Example 9, 1-cyclopropyl-6-fluoro-1,4-dihydro-7-[4-(2-hydroxy-6-methyl-4-oxa-5-oxo-6-heptenyl)-1-piperazinyl]-4-oxo-3-quinoline carboxylic acid]	not detected	not detected	100	not detected	not detected	100	orange	white	brown	brown	yellow	white	white	white	white	white	white	white	not discolored
C=C(C)C(=O)OCC(O)CN1CCN(c2cc3c(cc2F)c(=O)c(C(=O)O)cn3CC)CC1 (centres unmarked) [Example 10, 1-ethyl-6-fluoro-1,4-dihydro-7-[4-(2-hydroxy-6-methyl-4-oxa-5-oxo-6-heptenyl)-1-piperazinyl]-4-oxo-3-quinoline carboxylic acid]	–	–	–	–	–	–	orange	white	brown	brown	yellow	white	white	white	white	white	white	white	not discolored
C=C(C)C(=O)N1CCN(c2cc3c(cc2F)c(=O)c(C(=O)O)cn3C2CC2)CC1 [Example 13, 1-cyclopropyl-6-fluoro-1,4-dihydro-7-[4-(2-methyl-1-oxo-2-propenyl)-1-piperazinyl]-4-oxo-3-quinoline carboxylic acid]	not detected	not detected	100	not detected	not detected	100	–	–	–	–	–	–	–	–	–	–	–	–	–
